The experiment concerns the target Intercellular adhesion molecule (ICAM-1), Integrin alpha-L/beta-2 (Homo sapiens, UniProt P05107+P20701). As to the kind of experiment: Inhibition of LFA-1/ICAM-1 interaction in ELISA. It counts as protein-complex assay.

SMILES strings stand for the structures. pIC50: −log10 of the molar value. Bounds are passed on as bounds.

Intercellular adhesion molecule (ICAM-1), Integrin alpha-L/beta-2, sequence (P20701 whole entry): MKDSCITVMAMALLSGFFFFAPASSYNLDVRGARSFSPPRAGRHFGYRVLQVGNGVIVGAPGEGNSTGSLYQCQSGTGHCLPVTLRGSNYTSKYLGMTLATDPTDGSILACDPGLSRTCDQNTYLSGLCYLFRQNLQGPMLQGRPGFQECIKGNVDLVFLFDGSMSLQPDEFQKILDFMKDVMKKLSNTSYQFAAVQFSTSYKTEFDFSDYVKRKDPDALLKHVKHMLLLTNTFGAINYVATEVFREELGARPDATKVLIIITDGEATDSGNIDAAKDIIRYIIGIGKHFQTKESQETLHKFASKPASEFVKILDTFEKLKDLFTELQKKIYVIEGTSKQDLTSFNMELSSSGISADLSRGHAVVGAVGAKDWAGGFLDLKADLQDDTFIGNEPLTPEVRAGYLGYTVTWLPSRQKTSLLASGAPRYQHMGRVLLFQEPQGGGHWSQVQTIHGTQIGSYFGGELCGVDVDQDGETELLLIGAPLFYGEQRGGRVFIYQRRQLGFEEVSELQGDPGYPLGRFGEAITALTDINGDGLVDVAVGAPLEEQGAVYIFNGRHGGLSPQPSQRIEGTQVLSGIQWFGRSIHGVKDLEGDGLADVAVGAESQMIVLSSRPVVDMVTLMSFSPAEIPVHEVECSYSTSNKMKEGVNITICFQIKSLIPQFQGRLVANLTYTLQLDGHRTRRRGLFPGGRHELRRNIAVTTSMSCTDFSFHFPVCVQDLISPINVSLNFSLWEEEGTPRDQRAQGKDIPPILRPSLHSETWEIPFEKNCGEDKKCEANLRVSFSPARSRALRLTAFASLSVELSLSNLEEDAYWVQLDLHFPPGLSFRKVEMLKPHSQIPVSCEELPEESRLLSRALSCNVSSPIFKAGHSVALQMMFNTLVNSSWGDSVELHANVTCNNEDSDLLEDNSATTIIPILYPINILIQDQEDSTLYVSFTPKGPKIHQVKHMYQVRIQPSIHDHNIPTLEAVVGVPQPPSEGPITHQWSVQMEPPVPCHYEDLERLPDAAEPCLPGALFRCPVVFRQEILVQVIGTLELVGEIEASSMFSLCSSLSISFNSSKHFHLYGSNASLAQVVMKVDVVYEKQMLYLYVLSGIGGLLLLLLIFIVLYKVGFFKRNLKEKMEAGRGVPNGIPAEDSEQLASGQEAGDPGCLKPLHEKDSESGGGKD
Intercellular adhesion molecule (ICAM-1), Integrin alpha-L/beta-2, sequence (P05362 whole entry, further chain): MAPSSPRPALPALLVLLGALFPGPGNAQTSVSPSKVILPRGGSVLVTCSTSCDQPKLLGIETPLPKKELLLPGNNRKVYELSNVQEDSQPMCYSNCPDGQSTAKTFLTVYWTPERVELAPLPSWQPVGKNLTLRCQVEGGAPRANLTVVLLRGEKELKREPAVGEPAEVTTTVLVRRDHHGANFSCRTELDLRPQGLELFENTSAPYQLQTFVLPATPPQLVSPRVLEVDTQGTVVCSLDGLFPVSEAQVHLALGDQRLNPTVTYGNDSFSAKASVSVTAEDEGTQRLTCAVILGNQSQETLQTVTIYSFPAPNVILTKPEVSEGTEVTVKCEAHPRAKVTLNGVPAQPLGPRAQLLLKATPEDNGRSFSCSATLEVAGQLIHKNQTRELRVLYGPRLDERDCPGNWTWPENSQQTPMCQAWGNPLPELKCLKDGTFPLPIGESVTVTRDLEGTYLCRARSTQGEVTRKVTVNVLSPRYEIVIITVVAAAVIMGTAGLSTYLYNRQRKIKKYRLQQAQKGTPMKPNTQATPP
Intercellular adhesion molecule (ICAM-1), Integrin alpha-L/beta-2, sequence (P05107 whole entry): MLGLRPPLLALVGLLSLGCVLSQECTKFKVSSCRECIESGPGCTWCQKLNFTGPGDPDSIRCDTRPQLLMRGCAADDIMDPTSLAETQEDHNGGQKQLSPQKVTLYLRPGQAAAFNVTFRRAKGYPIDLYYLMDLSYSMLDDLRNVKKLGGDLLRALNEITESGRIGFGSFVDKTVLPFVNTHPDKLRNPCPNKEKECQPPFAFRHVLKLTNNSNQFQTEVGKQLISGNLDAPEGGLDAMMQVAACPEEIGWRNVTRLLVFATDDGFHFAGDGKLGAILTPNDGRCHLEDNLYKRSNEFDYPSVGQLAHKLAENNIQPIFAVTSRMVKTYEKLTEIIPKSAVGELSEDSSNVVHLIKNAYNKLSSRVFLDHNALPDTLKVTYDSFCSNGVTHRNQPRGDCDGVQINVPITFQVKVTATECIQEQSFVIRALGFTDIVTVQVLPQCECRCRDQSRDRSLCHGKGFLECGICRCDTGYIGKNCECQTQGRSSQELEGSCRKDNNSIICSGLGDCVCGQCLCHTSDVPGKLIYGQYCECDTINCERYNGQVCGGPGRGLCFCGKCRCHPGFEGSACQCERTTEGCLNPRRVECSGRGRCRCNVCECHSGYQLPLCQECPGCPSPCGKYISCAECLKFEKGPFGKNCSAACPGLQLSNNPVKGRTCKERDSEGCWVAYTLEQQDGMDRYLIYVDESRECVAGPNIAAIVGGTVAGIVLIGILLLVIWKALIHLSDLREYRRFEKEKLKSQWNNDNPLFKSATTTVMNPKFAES

With `COC(=O)[C@H](Cc1ccc2ccccc2c1)N1CC[C@@H](C)N(C(=O)Cc2ccc3ncccc3c2)[C@@H](CC(C)C)C1=O`, the pIC50 (in general, the negative decadic logarithm of the IC50, by convention in mol/L) is 5.59.

The molecule `CC(C)C[C@H]1C(=O)N([C@@H](Cc2ccc3ccccc3c2)C(N)=O)CC[C@@H](C)N1C(=O)Cc1ccc(Br)cc1` showed a negative logarithm of the IC50 (pIC50) of 5.89. On to `CC(C)C[C@H]1C(=O)N([C@@H](Cc2ccc3ccccc3c2)C(N)=O)CC[C@@H](C)N1C(=O)Cc1ccncc1`, for which the pIC50 was 6.01. As for `CC(C)C[C@H]1C(=O)N([C@@H](Cc2ccc3ccccc3c2)C(N)=O)CC[C@@H](C)N1C(=O)Cc1ccccc1`, the figure is 6.12; as for `CC(C)C[C@H]1C(=O)N([C@H](C(N)=O)c2ccc3ccccc3c2)CCC(C)N1C(=O)Cc1ccc2ccccc2c1` (some centres not stated), under 4.70. The figure for `CC(C)C[C@H]1C(=O)N([C@@H](Cc2ccc3ccccc3c2)C(N)=O)CC[C@@H](C)N1C(=O)Cc1ccc2ccccc2c1` is 5.70. `CC(C)C[C@H]1C(=O)N([C@@H](Cc2ccc3ccccc3c2)C(=O)O)CC[C@@H](C)N1C(=O)Cc1ccc2ccccc2c1`: the pIC50 is under 4.70.
